From patent publication US20220193185A1, “COMBINATION OF SYNTHETIC PEPTIDES WITH AFFINITY TO THE TGF-ß RECEPTOR AND WITH AFFINITY TO THE IL-10 RECEPTOR, PHARMACEUTICAL COMPOSITION AND THEIR USE AS IMMUNOMODULATORS IN THE TREATMENT OF AUTOIMMUNE, INFLAMMATORY OR ALLERGIC DISEASES” (Universidade Federal de Uberlândia, priority 2019, published 2022)
Bridges are numbered along the chain shown (N, C = ends). Where no end group is shown, it is not given here.

Assays:
[1] = test system: TFGβRII/SMAD-dependent pathway; assay: HEK-blue-TGFβ reporter cells, SEAP production; assay type: cell-based; conditions: 12 hours; tested at 0.1, 1, 10 and 100 μM
Experimental: After 12 hours of stimulation (FIG. 4A), all peptides were able to bind to the receptor.
The assay was performed in such a way that approximately 2.5×10^4 cells/well (100 μL) were treated with 100 μL of all synthetic peptides at different concentrations (100 μM, 10 μM, 1 μM and 0.1 μM) while rTGF-β1 ([…]) at 100 ng/ml was used as a positive control. After incubating the cells for 12, 24 and 48 hours at 37° C. in 5% CO2, […] of supernatant was transferred to a Greiner plate to which […] of Quanti-blue solution was added. The plate was incubated for 1 hour at 37° C. in 5% CO2 and the production of SEAP (secreted alkaline phosphatase) was detected at 655 nm. All tests were performed in triplicate.

TLR4 pathway = assay: HEK-Blue hTLR4 reporter cells, SEAP production (TGF-β1 mimetic peptides); assay type: cell-based; conditions: peptide pretreatment 1 hour, then LPS 100 ng/mL; 12 hours
Experimental: Similar to the treatment using Jurkat cells, peptides in compositions with different concentrations were also tested in HEK cells to investigate their ability to interfere with the TLR4 pathway.
To ensure that the peptides could not induce any activation when tested alone (no pathway activation molecule) only the peptides were added into the cell line and SEAP production was measured after 12 hours of treatment (Figure not shown).
The assay was performed using HEK-Blue hTLR4 reporter cells (InvivoGen) to investigate the action of peptides in the TLR4 pathway. A total of 2.3×10^4 cells/well ([…]) was pretreated with […] of composition comprising at least one of the synthetic peptides at concentrations of 100 μM, 10 μM, 1 μM, and 0.1 μM for 1 hour at 37° C. ° C. in 5% CO2 followed by LPS stimulation at 100 ng/mL for 12 hours. The same stimuli were applied to cells pretreated with LPS at 100 ng/ml for 1 hour at 37° C. in 5% CO2, followed by stimuli with peptides at 100 μM, 10 μM, 1 μM and 0.1 μM for 12 hours. Stimuli were added in Quanti-blue medium and SEAP production was measured at 655 nm. As a control, peptides at the same concentrations were tested alone to investigate whether they could activate the TLR4 pathway and LPS was used as a positive control.

NFkB pathway [2] = assay: NFkB expression in Jurkat cells, luciferase (TGF-β1 mimetic peptides); assay type: cell-based, human; conditions: peptide pretreatment 1 hour, then TNF-α, tested at 0.1-100 μM
Experimental: Two different cell treatments were performed using Jurkat cells to analyze NFkB expression after 12, 24 and 48 hours. In the first test, Jurkat cells were treated only with peptides (no pathway activating molecule) at different concentrations to analyze the ability of each peptide to induce NFkB expression (Figure not shown). None of the tested concentrations induced any type of pathway activation.
The assay was carried out in such a way that a total of 3×10^5 cells/well ([…]) was pretreated with […] of a composition comprising one of the synthetic peptides in concentrations of 100 μM, 10 μM, 1 μM, and 0.1 μM for 1 hour at 37° C. in 5% CO2, followed by stimulation with TNF-α (200 ng/ml) for 12, 24 and 48 hours. The same stimuli were applied to cells pretreated with TNF-α (200 ng/ml) for 1 hour at 37° C. in 5% CO2 followed by stimulation with peptides at 100 μM, 10 μM, 1 μM and 0.1 μM for 12, 24 and 48 hours. Then, […] of supernatant was transferred to a white plate and Quanti-Luc reagent was used to measure the luciferase product. As a control, the peptides were tested at the same concentrations, without any pathway activating molecule, to investigate whether they could activate the NFkB pathway. TNF-α (200 ng/mL) was used as a positive control and rIL-10 (0.4 ng/mL) as a negative control. […].

[3] = aggregation behavior in solution by Dynamic Light Scattering (DLS); assay type: physicochemical
[4] = test system: TGF-β1 receptor on A549 cells; assay: ELISA on cells of the A549 line using anti-TGF-β1 antibody; assay type: binding, human
Experimental: The peptides described in this patent application were selected using the Phage Display (PD) methodology. The selection was performed by evaluating the ability of said peptides to recognize the TGF-β1 receptor on A549 cells, using an ELISA assay. MaxiSorp 96-well microtiter plates were coated with 1×10^6 cells diluted in PBS and incubated overnight at 4° C. Cells were blocked with 3% PBS-BSA for 1 h at 37° C., washed once with PBS and incubated with […] of each TGF-β1 mimetic peptide or 5 ng/ml of recombinant TGF-β1 for 1 h at 37° C. After washing, the plate was incubated for 1 h at 37° C. with anti-TGF-β1 antibody. The plate was washed and incubated with HRP-labeled anti-human IgG antibody for 1 h at 37° C. After washing, TMB substrate solution was added to the plate; the reaction was stopped by adding the 2N H2SO4 solution and read at 492 nm in a microplate reader.
To investigate whether the synthesized peptides could bind to cell receptors, an ELISA assay was performed on cells of the A549 line using commercial anti-TGF-β1 antibody.

J774 cell line = assay: cytokine production after treatment of the J774 cell line; assay type: cell-based
Experimental: After 24 hours of treatment, the levels of IL-6, MCP-1 and TNF-α produced were measured.
Decreases were significant compared to cells treated with LPS alone (positive control). *P<0.05; **P<0.005; ***P<0.0005.

[5] = test system: rat basophilic leukemia cells transfected with the human FIϵRI IgE receptor (hRBL); assay: IgE-mediated release in hRBL cells sensitized with serum from patients allergic to birch pollen, Bet v 1; assay type: cell-based; conditions: Pep 1-IL-10 at 1 μM; serum from seven birch pollen allergic donors
Experimental: The effect of IL-10 mimetic peptides on IgE-mediated release was examined using rat basophilic leukemia cells transfected with the human FIϵRI IgE receptor (hRBL). As an example, we selected as an example Pep 1-IL-10 to show the data obtained. The hRBL cells were sensitized with serum from seven patients allergic to birch pollen. Cells were stimulated with the antigen and its interaction with immobilized IgEs caused a release of b-hexosaminidase.
When cells were treated with a composition comprising Pep 1-IL-10 at 1 μM (FIG. 21A) or rIL10 (FIG. 21B), the amount of Bet v 1 needed to induce the same amount of degranulation was higher when compared to cells treated only with Bet vl (P<0.05). Amount of rBet v 1 (ng/mL) required to induce half the release of b-hexosaminidase using serum from seven birch pollen allergic donors after treatment with Pep 1-IL-10 (A) (P<0.05) and rIL10 (B)*P<0.05.

IFN signaling pathway = IFN signaling pathway in Jurkat-Dual reporter cells, SEAP production; assay type: cell-based; conditions: after 12, 24 and 48 hours; results depend on concentration
Experimental: (§1) In order to investigate the ability of synthetic peptides with affinity to the Interleukin-10 receptor to interfere in the NFkB, IFN and TLR4 pathways, reporter cell lines were used. To analyze whether the isolated peptides (without activation molecules) could induce any type of activation, the isolated peptides were tested in cell lines during 12, 24 and 48 hours of treatment. […] As an example, FIG. 13A, FIG. 13B, and FIG. 13C show an analysis of NFkB expression after stimulation with the synthesized IL-10 receptor affinity synthetic peptides described herein. Cells were treated for 12, 24 and 48 hours with the synthesized peptides Pep 1-IL10, Pep 2-IL10, Pep 3-IL10 and Pep 4-IL10, at different concentrations, without activating molecules. Luciferase was then measured after 12 hours of treatment (FIG. 13A), 24 hours of treatment (FIG. 13B) and 48 hours of treatment (FIG. 13C). […] TNF-α (200 ng/mL) was used as a positive control.
The most significant results will be described below. […] When cells were pretreated with IFN, although peptides at some concentrations indicated results, they were not statistically sufficient. Therefore, we cannot confirm whether they were able to interfere with pathway activation (FIGS. 17 A, B and C) in an equal or better way than the negative control (rIL-10). In the assays shown by FIGS. 16 (A, B and C) and FIGS. 17 (A, B and C), analysis of IFN expression was performed in Jurkat-Dual reporter cells. In the assays shown by FIGS. 16 A, B and C, cells were treated for 1 hour with peptides with further addition of IFN-α (104 EU/ml). Secreted Embryonic Alkaline Phosphatase (SEAP) production was measured after 12 hours of treatment (FIG. 16A), 24 hours of treatment (FIG. 16 B) and 48 hours of treatment (FIG. 16 C). In the assays shown by FIGS. 17A, B and C, cells were treated for 1 hour with IFN-α (104 EU/ml) with further addition of the peptides. SEAP production was measured after (A) 12 hours of treatment (B), 24 hours of treatment and (C) 48 hours of treatment. IFN-α (104 EU/ml) was used as a positive control and rlL-10 (0.4 ng/ml) as a negative control. *P<0.05.

NFkB pathway [6] = assay: NFkB expression in Jurkat-Dual reporter cells, luciferase (IL-10 mimetic peptides); assay type: cell-based; conditions: for concentrations with statistically significant decrease of NFKB activation: peptide pretreatment 1 hour, then TNF-α 200 ng/ml
Experimental: as §1
The assay was then carried out using TNF-α as activation molecule not only in the control, but after a pretreatment with the synthesized peptides Pep 1-IL10, Pep 2-IL10, Pep 3-IL10 and Pep 4-IL10, at different concentrations. All peptides were able to modulate NFKB activation after 12, 24 and 48 hours, with different results depending on the concentrations used. […] In the assays shown by FIGS. 14 A, B and C, analysis of NFkB expression was performed in Jurkat-Dual reporter cells. Cells were treated for 1 hour with peptides and TNF-α (200 ng/ml) added. Luciferase was measured after 12 hours of treatment (FIG. 14A), 24 hours of treatment (FIG. 14B) and 48 hours of treatment (FIG. 14C).
Another assay was then performed in which cells were pretreated with TNF-α and the synthesized peptides Pep 1-IL10, Pep 2-IL10, Pep 3-IL10 and Pep 4-IL10, at different concentrations, were added later. All peptides were able to modulate NFKB activation after 12, 24 and 48 hours, with different results depending on the concentrations used. The most significant results will be described below. […] After 48 hours of treatment, Pep 1-IL-10 at a concentration of 0.001 μM (P<0.05) was the one that obtained a result with the highest statistical significance in the decrease of NFKB signaling (FIG. 15C). In the assays shown by FIGS. 15 A, B and C, analysis of NFkB expression was performed in Jurkat-Dual reporter cells. Cells were treated for 1 hour with TNF-α (200 ng/ml) and peptides were added. Luciferase was measured after 12 hours of treatment (FIG. 15A), 24 hours of treatment (FIG. 15B) and 48 hours of treatment (FIG. 15C). TNF-α (200 ng/mL) was used as a positive control and rlL-10 (recombinant Interleukin-10) (0.4 ng/mL) as a negative control. *P<0.05; **P<0.005; ***P<0.0005.

[7] = peptide followed by LPS, 24 hours

Row | Molecule | concentrations with statistically significant activation of the SMAD-dependent pathway (SEAP) [1] | concentrations with statistically significant reduction of TLR4 pathway activation (TLR4 pathway) | concentrations with statistically significant decrease of NFKB pathway activation vs TNF-α control (NFkB pathway [2]; 24 hours) | concentrations with statistically significant decrease of NFKB pathway activation vs TNF-α control (NFkB pathway [2]; 48 hours) [µM] | hydrodynamic radius ([3]; TGF-β1 mimetic peptides in solution) [nm] | recognition of receptor-bound peptide by anti-TGF-β1 antibody compared to recombinant TGF-β1 [4] | production of IL-10, IFN-g or IL12p70 (J774 cell line; 24 hours of treatment) | production of IL-6, MCP-1 and TNF-α (J774 cell line; peptide followed by LPS for 24 hours) | concentrations that significantly reduced IL-6 levels vs LPS alone (J774 cell line; [7]) | concentrations that significantly reduced MCP-1 levels vs LPS alone (J774 cell line; [7]) | concentrations that significantly reduced TNF-α levels vs LPS alone (J774 cell line; [7]) | cytokine response to peptide alone (J774 cell line; without LPS stimulation, 24 hours) | amount of Bet v 1 needed to induce the same amount of degranulation (half the release of b-hexosaminidase) vs Bet v 1 only [5] | measured hydrodynamic radius ([3]; IL-10 mimetic peptides in solution) [nm] | modulation of the activation of the IFN signaling pathway (IFN signaling pathway) | concentration with highest statistical significance in the decrease of NFKB signaling (NFkB pathway [6]; cells pretreated 1 hour with TNF-α 200 ng/ml, peptides added, 48 hours) [µM] | concentrations with statistically significant decrease of NFKB activation (NFkB pathway [6]; 12 hours) | concentrations with statistically significant decrease of NFKB activation (NFkB pathway [6]; 24 hours) | concentrations with statistically significant decrease of NFKB activation (NFkB pathway [6]; 48 hours) | induction of NFkB expression by peptides alone (NFkB pathway [6]; without activating molecules, 12, 24 and 48 hours, different concentrations)
1 | Pep 7-TGF-β1: synthetic peptide with affinity to the TGF-β receptor, SEQ ID N 07, free of disulfide bridges (HASTIASTLHSGGGS) | 0.1 μM: 1 μM; 10 μM and 100 μM | 0.1 μM; 1 μM and 10 μM | 1 µM and 100 µM | 1 | 2.94 | recognized as statistically different |  |  |  |  |  |  |  |  |  |  |  |  |  | 
2 | Pep 1-IL-10: synthetic peptide with affinity to the Interleukin-10 receptor, SEQ ID 09, with disulfide bridges (HACSAVIKSSCGGGS; disulfide 3-11 (inferred)) |  |  |  |  |  |  | No interference | able to decrease | 1 μM, 10 μM and 100 μM | 1 µM and 10 µM | 1 μM, 10 μM and 100 μM | unable to induce any response | higher | 0.82 | able to modulate the activation of the IFN signaling pathway | 0.001 | all concentrations tested | all concentrations tested | all concentrations tested | not able to induce any response
3 | rIL10: recombinant Interleukin-10, used as control (protein, UniProt P22301 19-178, looked up) Interleukin-10: SPGQGTQSENSCTHFPGNLPNMLRDLRDAFSRVKTFFQMKDQLDNLLLKESLLEDFKGYLGCQALSEMIQFYLEEVMPQAENQDPDIKAHVNSLGENLKTLRLRLRRCHRFLPCENKSKAVEQVKNAFNKLQEKGIYKAMSEFDIFINYIEAYMTMKIRN |  |  |  |  |  |  |  |  |  |  |  |  | higher |  |  |  |  |  |  | 
